Measurements published in patent publication US20040053989A1, “Dithiolthione compounds for the treatment of neurological disorders and for memory enhancement” (Patrick Prendergast, priority 1999, published 2004).
Entries after “also recorded” stand apart in the source; their conditions may differ. Where two headings read alike, the source gives them in different places.

What was measured:
[1] = tested on: neurons and clonal cell lines; assay: Attenuation of amyloid-β toxicity; format: cell-based; conditions: for attenuation of amyloid-β toxicity, dose dependence: pre-incubated with amyloid-β
From the text: In vitro, amyloid-β is toxic to neurons and clonal cell lines.

[2] = tested on: Primary cortical neuron cultures; conditions: Oltipraz 20 μM, Aβ1-42 25 μM, 5 days, MTT; p<0.05, ANOVA
Method: Primary cortical neuron cultures were established from E14 mice. […] Cultures were incubated for 5 days (37° C.) and then cell viability was determined using the MTT reduction assay. Cultures were also monitored for morphological changes by phase contrast microscopy. The MTT assay was performed by adding water soluble MTT to the culture medium at 0.5 mg/mL and incubating for 30 min. […] The culture medium was removed and the MTT solubilized in DMSO. Aliquots of solubilized MTT were read on a spectrophotometric plate reader at 570 nm.

[3] = sections treated 2 hrs or overnight
[4] = tested on: Primary fibroblast cultures; assay: H2O2 toxicity in primary fibroblast cultures, murine model for oxidative stress (MTT); format: cell-based, mice; conditions: H2O2 150 μM, Oltipraz 25 μM
Method: (§1) Primary fibroblast cultures were prepared from normal mice (non Tg), mice transfected to produce human wild type presenilin 1 (WT Tg) or mice transfected to produce mutant human presenilin 1 (Mut Tg). All mice are derived from an identical genetic background. […] 50U/mL of catalase was used as a benchmark antioxidant against H2O2 toxicity. Cell viability was determined with the MTT reduction assay. […] Cell viability was determined with the MTT assay.

L. donovani = assay: In vitro anti-protozoal activity, L. donovani; format: cell-based
[5] = doses of oltipraz effective at chelating in situ or abolishing amyloid-β toxicity; preliminary data
Mut Tg fibroblasts = conditions: Oltipraz 10, 25 and 50 μM; fibroblasts treated with toxic levels of BSO
Method: as §1

T. cruzi = assay: In vitro anti-protozoal activity, T. cruzi; format: cell-based
P. falciparum 3D7 = tested on: P. falciparum 3D7
Method: For in-vitro antimalarial testings, micro-titer plates were used. The concentration of drugs was prepared as pMol/well according to WHO standard procedures (WHO, 1990). The test compound was dissolved in 15% DMSO in sterile RPMI 1640.
The micro-titer plates were predosed with various concentration of the test compound. 50 μL of parasitised erythrocyte suspension in RPMI-1640 (0.2 ml erythrocyte +0.3 ml serum +4-5 ml RPMI-1640) were dispensed in microtiter wells containing various concentrations of drug. Triplicate readings were made for each concentration.
The testing was carried out according to the procedure of Desjardins et al. 1979. After 30 hr culture at 37 degrees C., the same microtiter plates from schizont inhibition assays with another triplicate wells were pulsed with ^3H-hypoxanthine for overnight. The cell suspensions were washed twice on millipore glass fiber filter with Millipore filter apparatus. The filter discs were counted for DPM by Beckman LS6000-scintillation counter. The activity of the drug was measured by plotting DPM against concentration of drug.

T.b.rhodesiense STIB900 = assay: In vitro anti-protozoal activity, T.b.rhodesiense STIB900; format: cell-based
[6] = H2O2-dependent oxidation of 3,3′-diaminobenzidine (DAB) by lesions in AD brain tissue sections after chelator treatment; parameters: species or system human; conditions: prior treatment of AD brain tissue sections
From the text: AD is associated with abnormalities of iron metabolism including increased levels of free iron as well as altered levels of iron transport and storage proteins. […] In addition to the NFT and Aβ deposits, redox active metals can be identified in the cytoplasm by the same DAB reaction. […] Although in situ histochemical techniques lack the sensitivity to detect copper, copper (as well as iron) could contribute to the redox activity. The relative effectiveness of copper- and iron-selective chelating agents was used to remove the lesion-dependent redox activity, which provided evidence for both copper- and iron-mediated redox activity in AD. […] Also, DAB oxidation was inhibited by chelation of metals with […]

Cc1c(-c2cnccn2)ssc1=S [Oltipraz, oltipraz]
attenuation of the neurotoxicity of amyloid-β [1]: significantly attenuate | attenuation of amyloid-β toxicity, dose dependence [1]: reduced in a dose-dependent manner similar to that of deferoxamine | attenuation of amyloid-β toxicity, dose dependence ([1]; listed as oltipraz): attenuate its toxicity in a dose-dependent manner similar to that of deferoxamine | cell survival in brain tissue sections ([1]; shown in a figure): increase cell survival | cell viability compared to Aβ1-42 alone [2]: small increase in cell viability | iron removal compared with DFX [3]: not as effective as DFX | protective effect relative to that achieved with 50U/mL catalase [4]: about two thirds | protective effect against H2O2 toxicity ([4]; fibroblasts from Mut Tg mice (mutant human presenilin 1)): not in fibroblasts from Mut Tg mice | protective effect against H2O2 toxicity ([4]; fibroblasts from WT Tg mice (human wild type presenilin 1)): significant protective effect | protective effect against H2O2 toxicity ([4]; fibroblasts from non Tg mice): significant protective effect | % Inhibition (L. donovani; concentration 10): 0% | % Inhibition (L. donovani; concentration 30): 3.2% | neurotoxicity in vitro [5]: little/no neurotoxicity | cell viability restored (Mut Tg fibroblasts): 100% | % Inhibition (T. cruzi; concentration 1): 4.3% | % Inhibition (T. cruzi; concentration 3): 38.6% | % Inhibition (T. cruzi; concentration 10): 54.6% | % Inhibition (T. cruzi; concentration 30): 99.7% | ED50 column, second value in parentheses (not explained) (T. cruzi; line below the ED50): (23.8) μg/ml | % Inhibition (P. falciparum 3D7; concentration 1): 0% | % Inhibition (P. falciparum 3D7; concentration 3): 4.4% | % Inhibition (P. falciparum 3D7; concentration 10): 96.5% | % Inhibition (P. falciparum 3D7; concentration 30): 100% | % Inhibition (T.b.rhodesiense STIB900; concentration 10): 0% | % Inhibition (T.b.rhodesiense STIB900; concentration 30): 42.5%

O=C(O)CN(CCN(CC(=O)O)CC(=O)O)CCN(CC(=O)O)CC(=O)O [DTPA, detapac]
inhibition of lesion-associated DAB oxidation ([6]; 1 mM chelator): inhibited more than half | inhibition of lesion-associated DAB oxidation ([6]; 10 mM chelator): completely abolished; also recorded: nearly all | inhibition of lesion-associated DAB oxidation ([6]; 100 mM chelator): abolished all
